The values below come from patent US11912723B2, “KRAS modulators and uses thereof” (Quanta Therapeutics, Inc., priority 2022, dated 2024).

The target of experiment [1] is T1, GST-tagged KRAS G12D (2-169) (Homo sapiens, UniProt P01116, G12D).
T1 construct: GST-tagged KRAS^G12D (2-169, Reaction Biology, MSC-11-539); purchased Reaction Biology MSC-11-539 (KRAS G12D); MSC-11-502 (SOS1cat)
The experiment can be described thus: Nucleotide exchange assay (NEA), HTRF of SOS-mediated GTP-DY-647P1 binding. The experiment is classed as biochemical. Particulars: 5 nM GST-KRAS G12D, 20 nM SOScat, 150 nM GTP; compound 1 h at RT. A digest of the protocol: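 After 1 h RT preincubation of compound with KRAS, SOS1cat (20 nM final) and fluorescent GTP analog (150 nM) were added to 5 nM KRAS; HTRF (anti-GST Tb donor) followed at RT for up to 90 min. % inhibition relative to DMSO and no-SOS1 blank, 4-parameter curve fit.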
For orientation: In TR-FRET formats the signal depends on donor and acceptor labels being close together.

Experiment [2] concerns AGS (KRAS G12D) cells, phospho-ERK. The experiment can be described thus: pERK In Cell Western (ICW) assay (Method B). The experiment is classed as cell-based. Particulars: Homo sapiens, 3 hours. As to the method:
pERK ICW is a high throughput screening assay to evaluate the cellular potency of mutant KRAS small molecule inhibitors. KRAS mutant cell line AGS (KRAS^G12D) were purchased from ATCC and maintained in DMEM and RPMI medium supplemented with 10% fetal bovine serum and Penicillin/Streptomycin.
Cells grown in exponential phase were trypsinized, resuspended in fresh media, and viable cells were counted using a cell counter with Trypan Blue (BioRad TC20). Cells were seeded into 384-well plate (Greiner 781091) at density of 5,000 cells/well for AGS and allowed to grow overnight in a 37° C. CO2 incubator. The next day, compounds were dispensed into wells with a ½ log, 10-point serial dilution and top concentration of 10 μM using Tecan D300e dispenser and incubated for 3 hours in a 37° C. CO2 incubator. Cells were then fixed with paraformaldehyde (Electron Microscopy Sciences, 15710, 4% final concentration) for 30 min, permeabilized with wash buffer (1×PBS+0.1% Triton X-100) for 30 min and blocked with Odyssey blocking buffer (Li—COR 927-70001) for 1 hour, all at room temperature (RT). Phospho-ERK antibody (CST 4370L) was diluted 1:500 in Odyssey blocking+0.2% Tween 20 and incubated with cells overnight at 4° C. The next day, plates were washed 5× with wash buffer, incubated with IRDye 800 CW, Goat anti-Rabbit secondary antibody (Li—COR 926-32211, 1:500) and DRAQ5 (CST 4084L, 1:5,000) diluted in Odyssey blocking+0.2% Tween 20 for 1 hour, washed 5×, and imaged on an Odyssey CLx imaging system.
For data analysis, signal intensities from 800 (phosphor-ERK) and 700 (DRAQ5) channels were extracted, and phospho-ERK signals were normalized to DRAQ5 signals for each well and percent of DMSO control values were computed. Data were then imported into Graphpad Prism to compute half-maximal inhibitory concentrations (IC50) using a 4-parameter variable slope model. Z-factor for each plate was computed from signals derived from wells treated with either DMSO or 5 μM of Trametinib. AGS pERK ICW (Method B) IC50 (uM) values of selected compounds are depicted in Table 2 with compounds having a value 0.001 uM to 0.01 uM as ++++; >0.01 uM to 0.1 uM as +++; >0.1 uM to 1 uM as ++; 1 uM to 10 uM as + and >10 uM as NA.

Another experiment addresses T2, KRAS G12D/RAF1 (Homo sapiens, UniProt P01116, G12D).
T2 construct: KRAS (1-169) proteins were expressed in E. coli at 18° C; His6-MBP (N, cleaved yes); made in house; host or cells: E. coli
The experiment can be described thus: Protein-protein interaction (PPI) HTRF assay KRAS G12D/RAF1. The experiment is classed as binding. As to conditions: KRAS G12D/RAF1, GppNHp-loaded KRAS; 30 minutes pre-incubation. In a few lines: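 IC50 values come from the 665/615 HTRF ratio, scaled between no-compound (0% inhibition) and untagged RAF1 (100%). GppNHp-exchanged, biotinylated RAS (1-169) solution at 16 nM met compound for 30 min at room temperature. Then 16 nM His-tagged RAF1 (52-131) donor solution was added and incubated 1 h.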

One may read the IC50 as the midpoint of a concentration-inhibition curve. Low readings indicate higher potency, high ones lower potency.

SMILES strings stand for the structures.

T1 sequence (P01116 2-169 isoform P01116-2 G12D): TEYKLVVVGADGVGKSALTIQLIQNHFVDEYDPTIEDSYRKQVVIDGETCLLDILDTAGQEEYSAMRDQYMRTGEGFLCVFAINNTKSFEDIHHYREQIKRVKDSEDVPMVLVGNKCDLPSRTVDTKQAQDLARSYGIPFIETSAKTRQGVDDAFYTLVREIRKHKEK
T2 sequence (P01116 1-169 isoform P01116-2 G12D): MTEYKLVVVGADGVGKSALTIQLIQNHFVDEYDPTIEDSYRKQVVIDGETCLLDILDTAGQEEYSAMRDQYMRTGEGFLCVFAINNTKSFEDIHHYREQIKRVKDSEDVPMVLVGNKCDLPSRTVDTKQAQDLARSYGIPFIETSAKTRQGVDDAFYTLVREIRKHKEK

For `CN1Cc2c(nc(OC[C@@]34CCCN3C[C@H](F)C4)nc2N2CCC[C@]3(C2)NC(=O)NC3=O)C[C@]12CCc1c(F)cccc12` [Compound 68, (5R)-9-[(7S)-4′-fluoro-2-[[(2R,8S)-2-fluoro-1,2,3,5,6,7-hexahydropyrrolizin-8-yl]methoxy]-6-methyl-spiro[5,8-dihydropyrido[4,3-d]pyrimidine-7,1′-indane]-4-yl]-1,3,9-triazaspiro[4.5]decane-2,4-dione], the IC50 was 10 to 100 nM in experiment [1] and above 10 µM in experiment [2].
The corresponding values for `CN(C)C(=O)c1cc2n(n1)CCCN(c1nc(OC[C@@]34CCCN3C[C@H](F)C4)nc3c1COC1(CCc4ccc(OC(F)F)cc41)C3)C2` (mixture of isomers) [Compound 41, 5-[6′-(difluoromethoxy)-2-[[rac-(2R,8S)-2-fluoro-1,2,3,5,6,7-hexahydropyrrolizin-8-yl]methoxy]spiro[5,8-dihydropyrano[4,3-d]pyrimidine-7,1′-indane]-4-yl]-N,N-dimethyl-4,6,7,8-tetrahydropyrazolo[1,5-a][1,4]diazepine-2-carboxamide] are 1000 to 20000 nM and above 10 µM.
For `CN1Cc2c(nc(OC[C@@]34CCCN3C[C@H](F)C4)nc2N2CCC[C@]3(C2)NC(=O)NC3=O)C[C@]12CCc1cccc(F)c12` [Compound 66, (5R)-9-[(7S)-7′-fluoro-2-[[(2R,8S)-2-fluoro-1,2,3,5,6,7-hexahydropyrrolizin-8-yl]methoxy]-6-methyl-spiro[5,8-dihydropyrido[4,3-d]pyrimidine-7,1′-indane]-4-yl]-1,3,9-triazaspiro[4.5]decane-2,4-dione], in that order: 10 to 100 nM and above 10 µM.
The corresponding values for `CN(C)C(=O)c1cc2n(n1)CCCN(c1nc(OC[C@@]34CCCN3C[C@H](F)C4)nc3c1COC1(CCc4c(OC(F)F)cccc41)C3)C2` (mixture of isomers) [Compound 48, 5-[4′-(difluoromethoxy)-2-[[rac-(2R,8S)-2-fluoro-1,2,3,5,6,7-hexahydropyrrolizin-8-yl]methoxy]spiro[5,8-dihydropyrano[4,3-d]pyrimidine-7,1′-indane]-4-yl]-N,N-dimethyl-4,6,7,8-tetrahydropyrazolo[1,5-a][1,4]diazepine-2-carboxamide] are 1000 to 20000 nM and above 10 µM.
In the case of `CN1Cc2c(nc(OC[C@@]34CCCN3C[C@H](F)C4)nc2N2CCC[C@]3(C2)NC(=O)NC3=O)C[C@]12CCc1c(F)ccc(F)c12` [Compound 67, (5R)-9-[(7S)-4′,7′-difluoro-2-[[(2R,8S)-2-fluoro-1,2,3,5,6,7-hexahydropyrrolizin-8-yl]methoxy]-6-methyl-spiro[5,8-dihydropyrido[4,3-d]pyrimidine-7,1′-indane]-4-yl]-1,3,9-triazaspiro[4.5]decane-2,4-dione], the IC50 in experiment [1] is 10 to 100 nM; in experiment [2] it was above 10 µM.
For `CN(C)C(=O)c1cc2n(n1)CCCN(c1nc(OC[C@@]34CCCN3C[C@H](F)C4)nc3c1CN(C)[C@]1(CCCc4ccc(O)cc41)C3)C2` [Compound 39B, 5-[(7R)-2-[[(2R,8S)-2-fluoro-1,2,3,5,6,7-hexahydropyrrolizin-8-yl]methoxy]-7′-hydroxy-6-methyl-spiro[5,8-dihydropyrido[4,3-d]pyrimidine-7,1′-tetralin]-4-yl]-N,N-dimethyl-4,6,7,8-tetrahydropyrazolo[1,5-a][1,4]diazepine-2-carboxamide], in that order: 1000 to 20000 nM and above 10 µM.
The corresponding values for `CN1Cc2c(nc(OC[C@@]34CCCN3C[C@H](F)C4)nc2N2CCC[C@]3(C2)NC(=O)NC3=O)C[C@]12CCc1cccc(Cl)c12` [Compound 70, (5R)-9-[(7S)-7′-chloro-2-[[(2R,8S)-2-fluoro-1,2,3,5,6,7-hexahydropyrrolizin-8-yl]methoxy]-6-methyl-spiro[5,8-dihydropyrido[4,3-d]pyrimidine-7,1′-indane]-4-yl]-1,3,9-triazaspiro[4.5]decane-2,4-dione] are 10 to 100 nM and 1 to 10 µM.
In the case of `CN(C)C(=O)c1nn2c(c1Cl)CN(c1nc(OCC3(CN4CCOCC4)CC3)nc3c1CN(C)[C@@]1(CCCc4ccccc41)C3)CCC2` [Compound 95, 3-chloro-N,N-dimethyl-5-[(7S)-6-methyl-2-[[1-(morpholinomethyl)cyclopropyl]methoxy]spiro[5,8-dihydropyrido[4,3-d]pyrimidine-7,1′-tetralin]-4-yl]-4,6,7,8-tetrahydropyrazolo[1,5-a][1,4]diazepine-2-carboxamide], the IC50 in experiment [1] is below 10 nM; against KRAS G12D/RAF1 it was above 100 µM.
For `CN1Cc2c(nc(OC[C@@]34CCCN3C[C@H](F)C4)nc2N2CCCn3nc(-c4ccccn4)cc3C2)C[C@]12CCCc1ccccc12` [Compound 88, (7S)-2-[[(2R,8S)-2-fluoro-1,2,3,5,6,7-hexahydropyrrolizin-8-yl]methoxy]-6-methyl-4-[2-(2-pyridyl)-4,6,7,8-tetrahydropyrazolo[1,5-a][1,4]diazepin-5-yl]spiro[5,8-dihydropyrido[4,3-d]pyrimidine-7,1′-tetralin]], in that order: 10 to 100 nM and above 100 µM.
For `N=S1(=O)CCN(C(=O)c2nn3c(c2Cl)CN(c2nc(OC[C@@]45CCCN4C[C@H](F)C5)nc4c2CO[C@@]2(CCc5c(Cl)cccc52)C4)CCC3)CC1` [Compound 52, [3-chloro-5-[(7S)-4′-chloro-2-[[(2R,8S)-2-fluoro-1,2,3,5,6,7-hexahydropyrrolizin-8-yl]methoxy]spiro[5,8-dihydropyrano[4,3-d]pyrimidine-7,1′-indane]-4-yl]-4,6,7,8-tetrahydropyrazolo[1,5-a][1,4]diazepin-2-yl]-(1-imino-1-oxo-1,4-thiazinan-4-yl)methanone], in that order: below 10 nM and 10 to 100 µM.
Consider `Oc1ccc(Cl)c2c1C1(CC2)Cc2nc(OC[C@@]34CCCN3C[C@H](F)C4)nc(N3CCCCCC3)c2CO1` (mixture of isomers) [Compound 9, 4-(azepan-1-yl)-7′-chloro-2-[[rac-(2R,8S)-2-fluoro-1,2,3,5,6,7-hexahydropyrrolizin-8-yl]methoxy]spiro[5,8-dihydropyrano[4,3-d]pyrimidine-7,3′-indane]-4′-ol], for which the IC50 is 1000 to 20000 nM in experiment [1] and 1 to 10 µM in experiment [2].
As to `O=C1NC(=O)[C@]2(CCCN(c3nc(OC[C@@]45CCCN4C[C@H](F)C5)nc4c3COC3(CCCc5c(Cl)cc(O)cc53)C4)C2)N1` (single isomer, unassigned) [Compound 51B, (5R)-9-[(7*)-5′-chloro-2-[[(2R,8S)-2-fluoro-1,2,3,5,6,7-hexahydropyrrolizin-8-yl]methoxy]-7′-hydroxy-spiro[5,8-dihydropyrano[4,3-d]pyrimidine-7,1′-tetralin]-4-yl]-1,3,9-triazaspiro[4.5]decane-2,4-dione], the 50% inhibitory concentration (IC50) in experiment [1] was in the range of 10 to 100 nM; against KRAS G12D/RAF1 it was 10 to 100 µM.
For `Cc1noc(-c2cc3n(n2)CCCN(c2nc(OC[C@@]45CCCN4C[C@H](F)C5)nc4c2CN(C)[C@@]2(CCCc5ccccc52)C4)C3)n1` [Compound 74, 5-[5-[(7S)-2-[[(2R,8S)-2-fluoro-1,2,3,5,6,7-hexahydropyrrolizin-8-yl]methoxy]-6-methyl-spiro[5,8-dihydropyrido[4,3-d]pyrimidine-7,1′-tetralin]-4-yl]-4,6,7,8-tetrahydropyrazolo[1,5-a][1,4]diazepin-2-yl]-3-methyl-1,2,4-oxadiazole], in that order: 10 to 100 nM and above 100 µM.
